Test systems include A498 renal; HCT-116 colon; HCT-15 colon; IGROV1 ovarian; KM12 colon; MCF7 breast; SK-MEL-2 melanoma; SN12C renal; SW-620 colon; UACC-62 melanoma.
What all share (assay): growth of human tumour cells (NCI), 48 h

Values joined by “and” are separate entries in the source; they are usually repeats but may differ in a detail not shown here. Equal values may be shown once.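 In this assay, cells in 96-well plates receive the compound at five concentrations for 48 hours. Endpoints are linearly interpolated between the surrounding concentrations. Here, GI50 denotes the concentration required for 50% inhibition of growth. Definition used: TGI = concentration required for complete inhibition of growth.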

`COc1ccc(Cn2cc3c(c2-c2ccccc2)CCc2cnoc2-3)cc1OC`: the GI50 was 0.253 µM in the assay on A498 renal; 0.482 µM in the assay on HCT-116 colon; 0.522 µM in the assay on HCT-15 colon; 1.59 µM with IGROV1 ovarian; 0.487 µM in the assay on KM12 colon; 0.574 µM with MCF7 breast. For the same molecule, the GI50 with SK-MEL-2 melanoma was 0.735 µM; in the assay with SN12C renal it was 5.16 µM; with SW-620 colon, 0.455 µM; with UACC-62 melanoma, 0.581 µM. The TGI in the assay with A498 renal is 3.27 µM; in the assay on HCT-116 colon, over 100 µM; in the assay on HCT-15 colon, over 100 µM; in the assay on IGROV1 ovarian, over 100 µM; in the assay with KM12 colon, over 100 µM; in the assay on MCF7 breast it was over 100 µM. Moreover, the TGI in the assay on SK-MEL-2 melanoma, with SN12C renal, with SW-620 colon and with UACC-62 melanoma was over 100 µM throughout.

In the case of `CONC(C)=O`, the TGI in the assay on A498 renal, in the assay on HCT-116 colon, in the assay on HCT-15 colon, in the assay with IGROV1 ovarian, with KM12 colon and in the assay on MCF7 breast was over 100 µM throughout. Moreover, the TGI in the assay on SK-MEL-2 melanoma, in the assay on SN12C renal, with SW-620 colon and in the assay on UACC-62 melanoma was over 100 µM each time.

Consider `CC1=NN(c2ccc(S(=O)(=O)O)cc2)C(=O)/C1=C/c1ccc(Cl)cc1`, for which the TGI with A498 renal, in the assay on HCT-116 colon, in the assay with HCT-15 colon, in the assay with IGROV1 ovarian, in the assay with KM12 colon and in the assay on MCF7 breast was over 100 µM each time. Besides, the TGI with SK-MEL-2 melanoma, in the assay with SN12C renal, in the assay with SW-620 colon and with UACC-62 melanoma was over 100 µM throughout.

For the molecule `N#Cc1c(N)n2c(nc1=Nc1ccc(Cl)cc1)sc1cc(Cl)ccc12`, the GI50 with A498 renal is 5.24 µM and 1.2 µM; in the assay on HCT-116 colon, 6.12 µM; with HCT-15 colon it was 5.47 µM; in the assay on IGROV1 ovarian, over 100 µM; in the assay on KM12 colon, 3.22 µM; in the assay on MCF7 breast, 1.83 µM. Moreover, the GI50 is 2.01 µM in the assay with SK-MEL-2 melanoma, 33.5 µM with SN12C renal, 3.42 µM in the assay on SW-620 colon and 2.85 µM in the assay on UACC-62 melanoma. Further, the TGI with A498 renal was 9.62 µM; with HCT-116 colon, over 100 µM; in the assay on HCT-15 colon, over 100 µM; in the assay on IGROV1 ovarian it was over 100 µM; with MCF7 breast, over 100 µM; in the assay on SN12C renal, over 100 µM. Further, the TGI with SW-620 colon and in the assay on UACC-62 melanoma was over 100 µM in each case.

Regarding `N=N/C(=C\c1c(O)[nH]c2ccccc12)c1ccccc1`, the TGI in the assay on A498 renal is 91.6 µM; with HCT-116 colon it was over 59.3 µM; with HCT-15 colon, over 66.4 µM; with IGROV1 ovarian, over 100 µM; with KM12 colon, over 89.2 µM; in the assay on MCF7 breast it was over 100 µM. Also, the TGI in the assay on SK-MEL-2 melanoma was over 100 µM; with SN12C renal, over 94.7 µM; with SW-620 colon it was over 100 µM; with UACC-62 melanoma, over 100 µM.

Consider `N#C[Se]CCN1C(=O)C2C(C1=O)[C@H]1C=C[C@@H]2S1` (some centres not stated), for which the GI50 in the assay on A498 renal is 1.51 µM; in the assay with HCT-116 colon, 1.85 µM; in the assay on HCT-15 colon it was 2.2 µM; in the assay on IGROV1 ovarian, 1.59 µM; in the assay with KM12 colon, 2.32 µM; in the assay on MCF7 breast, 2.37 µM. Also, the GI50 was 2.44 µM in the assay on SK-MEL-2 melanoma, 1.92 µM in the assay with SN12C renal, 2.87 µM with SW-620 colon and 1.98 µM with UACC-62 melanoma. In addition, the TGI amounted to 3.33 µM in the assay on A498 renal; 4.35 µM in the assay on HCT-116 colon; 5.77 µM in the assay with HCT-15 colon; 3.48 µM in the assay on IGROV1 ovarian; 5.38 µM in the assay on KM12 colon; 9.19 µM with MCF7 breast. Moreover, the TGI in the assay on SK-MEL-2 melanoma was 6.43 µM; in the assay with SN12C renal, 4.07 µM; in the assay with SW-620 colon, 8.19 µM; with UACC-62 melanoma, 4.27 µM.

`Cc1ccc2c(c1)c(Sc1ccc(C(=O)NO)cc1)c1n2CN(C)CC1`: the GI50 with A498 renal is 0.191 µM; in the assay on HCT-116 colon, 1.59 µM; in the assay on HCT-15 colon, 3.65 µM; in the assay with IGROV1 ovarian, 2.23 µM; with KM12 colon, 1.71 µM; in the assay on MCF7 breast, 2.44 µM. The GI50 was 1.88 µM with SK-MEL-2 melanoma, 2.28 µM in the assay on SN12C renal, 1.77 µM with SW-620 colon and 1.51 µM with UACC-62 melanoma. In addition, the TGI in the assay with A498 renal stood at 2.16 µM; with HCT-116 colon it was 3.54 µM; with HCT-15 colon it was 13.6 µM; in the assay on IGROV1 ovarian, 5.46 µM; in the assay on KM12 colon it was 3.5 µM; in the assay with MCF7 breast it was 11.5 µM. Also, the TGI amounted to 4.21 µM in the assay with SK-MEL-2 melanoma, 6.79 µM in the assay on SN12C renal, 4.45 µM with SW-620 colon and 3.25 µM in the assay with UACC-62 melanoma.

Regarding `COc1ccc2c(c1)CC[C@@H]1[C@@H]2CC[C@]2(C)c3c(cc(C(=O)O)c4sccc34)C[C@@H]12`, the GI50 was 15.6 µM in the assay with A498 renal; 11.2 µM in the assay with HCT-116 colon; 10.8 µM in the assay on HCT-15 colon; 29.7 µM in the assay on IGROV1 ovarian; 10.6 µM in the assay with KM12 colon; 17.2 µM in the assay on MCF7 breast. The GI50 in the assay on SK-MEL-2 melanoma was 37.5 µM; in the assay with SN12C renal, 17.8 µM; in the assay on SW-620 colon, 16.1 µM; in the assay with UACC-62 melanoma it was 17.1 µM. Further, the TGI with A498 renal was 34.9 µM; with HCT-116 colon, 24.8 µM; with HCT-15 colon, 32 µM; in the assay with IGROV1 ovarian, over 100 µM; in the assay on KM12 colon, 23.5 µM; with MCF7 breast, 59 µM. Also, the TGI is over 100 µM in the assay with SK-MEL-2 melanoma, 41.3 µM in the assay on SN12C renal, 36.7 µM in the assay on SW-620 colon and 36.5 µM in the assay on UACC-62 melanoma.

For `CCCCCCCCCCCCSC1=C(Cl)C(=O)C(OC)=C(OC)C1=O`, the TGI in the assay with A498 renal came out at 14.1 µM; with HCT-116 colon, 11.9 µM; in the assay with HCT-15 colon, 27.8 µM; in the assay on IGROV1 ovarian, 20.7 µM; with KM12 colon, 11.6 µM; in the assay on MCF7 breast it was 7.12 µM. Besides, the TGI in the assay with SK-MEL-2 melanoma was determined as 14.8 µM; with SN12C renal, 16.5 µM; with SW-620 colon, 17.5 µM; in the assay on UACC-62 melanoma, 17.6 µM. Besides, the GI50 with HCT-116 colon was 0.508 µM; in the assay with HCT-15 colon it was 1.69 µM; with IGROV1 ovarian it was 6.99 µM; in the assay with KM12 colon it was 1.85 µM; in the assay on MCF7 breast it was 0.417 µM; in the assay with SK-MEL-2 melanoma, 4.36 µM. Besides, the values for the GI50 in the assay with SN12C renal, in the assay with SW-620 colon and in the assay with UACC-62 melanoma were 1.75 µM, 0.63 µM and 2.36 µM, respectively.

(Values after PubChem BioAssay (NCI).)
